Key:
Format in all cases: toxicity, cell-based
[1] = system: HEK-293T; assay: Incucyte cell viability with HEK293T; conditions: human, 10 µM, compound concentration 10 uM
[2] = system: Fibroblast; assay: Incucyte cell viability with human fibroblast; conditions: 10 µM, compound concentration 10 uM
[3] = system: U2OS; assay: Incucyte cell viability with U2OS; conditions: human, 10 µM, compound concentration 10 uM
Note: unitless GR value; below 1 slowed growth and below 0 cell loss.

SMILES | Growth Rate ([1]; 6 h, replicate number 1) | Growth Rate ([2]; 6 h, replicate number 2) | Growth Rate ([2]; 12 h, replicate number 2) | Growth Rate ([2]; 18 h, replicate number 1) | Growth Rate ([2]; 18 h, replicate number 2) | Growth Rate ([2]; 24 h, replicate number 2) | Growth Rate ([3]; 6 h, replicate number 1) | Growth Rate ([3]; 12 h, replicate number 1) | Growth Rate ([3]; 18 h, replicate number 1) | Growth Rate ([3]; 24 h, replicate number 1) | Growth Rate ([1]; 6 h, replicate number 2) | Growth Rate ([1]; 12 h, replicate number 2) | Growth Rate ([2]; 6 h, replicate number 1) | Growth Rate ([2]; 24 h, replicate number 1) | Growth Rate ([3]; 6 h, replicate number 2) | Growth Rate ([3]; 12 h, replicate number 2) | Growth Rate ([3]; 18 h, replicate number 2) | Growth Rate ([3]; 24 h, replicate number 2) | Growth Rate ([1]; 18 h, replicate number 2) | Growth Rate ([1]; 24 h, replicate number 2) | further results
CN(CC(=O)Nc1ccc(F)c(F)c1F)C(=O)c1ccc2c(c1)OCCO2 | 0.37 | 0.54 | 0.55 | 0.79 | 0.78 | 0.87 | 0.07 | 0.45 | 0.76 | 0.95 | – | – | – | – | – | – | – | – | – | – | Growth Rate ([1]; 12 h, replicate number 1): 0.74; Growth Rate ([1]; 18 h, replicate number 1): 0.93; Growth Rate ([3]; 0 h, replicate number 1): -0.71
O=C1C[C@@H]2OCC=C3CN4CC[C@]56c7ccccc7N1[C@H]5[C@H]2[C@H]3C[C@H]46 [STRYCHNINE] | – | – | – | 0.57 | 0.93 | 0.91 | – | 0.95 | 0.88 | 0.87 | 0.44 | 0.86 | 0.71 | 0.81 | 0.65 | 0.85 | 0.77 | 0.91 | – | – | Growth Rate ([1]; 0 h, replicate number 1): 0.93; Growth Rate ([1]; 0 h, replicate number 2): 0.94; Growth Rate ([2]; 0 h, replicate number 2): -0.75; Growth Rate ([2]; 12 h, replicate number 1): -0.92
Cc1cn([C@H](C)CC#N)c(=O)c2cc(Cn3nc(C(F)F)cc3Cl)nn12 | 0.81 | 0.78 | 0.58 | – | 0.99 | – | 0.38 | 0.34 | 0.52 | 0.64 | 0.66 | 0.82 | 0.89 | 0.93 | – | – | – | – | 0.9 | 0.89 | Growth Rate ([1]; 24 h, replicate number 1): 0.97; Growth Rate ([2]; 0 h, replicate number 1): -1
O=C(Nc1ccc(Cl)nc1)c1ccc(Cl)cc1 | 0.33 | – | – | – | – | – | – | 0.95 | – | – | 0.16 | 0.63 | -0.32 | 0.54 | – | – | – | – | 0.53 | 0.65 | Growth Rate ([1]; 12 h, replicate number 1): 0.71; Growth Rate ([1]; 18 h, replicate number 1): 0.59; Growth Rate ([1]; 24 h, replicate number 1): 0.63; Growth Rate ([2]; 0 h, replicate number 1): -0.21; Growth Rate ([2]; 0 h, replicate number 2): -0.9; Growth Rate ([3]; 0 h, replicate number 1): -0.12; Growth Rate ([3]; 0 h, replicate number 2): -0.39
Cc1nccc(COC(=O)N2C[C@@H]3[C@@H](CNC(=O)c4ccc5[nH]nnc5c4)[C@@H]3C2)n1 [BI 3017] | 0.95 | – | – | 0.93 | 0.73 | 0.95 | 0.95 | – | – | 0.86 | – | – | – | – | – | 0.99 | – | – | – | 0.99 | Growth Rate ([1]; 0 h, replicate number 1): 0.2; Growth Rate ([1]; 0 h, replicate number 2): 0.4; Growth Rate ([3]; 0 h, replicate number 1): 0.85
CC(C)(O)[C@H]1CC[C@H](Nc2ccc3ncc(-c4cccc(C(F)(F)F)c4)n3n2)CC1 [NUVISERTIB] | -0.61 | -0.83 | -0.72 | -0.46 | -0.6 | -0.47 | 0.88 | 0.46 | 0.38 | 0.32 | -0.3 | -0.3 | -0.74 | -0.39 | 0.42 | 0.24 | 0.15 | 0.08 | -0.12 | -0.02 | Growth Rate ([1]; 0 h, replicate number 2): -0.24; Growth Rate ([1]; 12 h, replicate number 1): -0.5; Growth Rate ([1]; 18 h, replicate number 1): -0.39; Growth Rate ([1]; 24 h, replicate number 1): -0.27; Growth Rate ([2]; 12 h, replicate number 1): -0.53; Growth Rate ([3]; 0 h, replicate number 1): -0.52
O=C1NC(c2cccc([N+](=O)[O-])c2)=CCN1c1ccccc1O [ICILLIN] | – | 0.04 | 0.48 | – | 0.89 | 0.91 | – | – | – | – | – | – | -0.8 | – | 0.82 | 0.76 | 0.96 | 0.93 | – | – | Growth Rate ([1]; 0 h, replicate number 2): 0.85; Growth Rate ([2]; 0 h, replicate number 1): 0.99; Growth Rate ([2]; 0 h, replicate number 2): -0.28; Growth Rate ([2]; 12 h, replicate number 1): 0.02; Growth Rate ([3]; 0 h, replicate number 2): 1
O=C(N[C@H]1CN2CCC1CC2)c1ccc(Cl)cc1 [PNU-282987] | – | -0.01 | 0.79 | – | 0.85 | 0.81 | – | 0.84 | 0.75 | 0.94 | 0.88 | 0.94 | -0.45 | – | 0.78 | – | 0.8 | 0.86 | – | 1 | Growth Rate ([3]; 0 h, replicate number 2): -0.61
CN1Cc2nccc(-c3cn(C)nc3-c3ccc(F)cc3)c2C1=O.Cl | – | – | – | – | – | – | – | – | 0.99 | – | – | – | – | – | – | – | – | – | – | – | Growth Rate ([1]; 0 h, replicate number 1): -0.38; Growth Rate ([1]; 0 h, replicate number 2): 0.69; Growth Rate ([2]; 0 h, replicate number 2): 0.28; Growth Rate ([3]; 0 h, replicate number 1): 0.53; Growth Rate ([3]; 0 h, replicate number 2): 0.96
CCN1/C(=C/C(C)=O)Sc2ccc(OC(C)=O)cc21 | -0.36 | -0.62 | – | – | – | – | – | 0.91 | 1 | 0.98 | 0.16 | 0.67 | – | 0.91 | 0.95 | 0.62 | 0.94 | 0.9 | 0.66 | 0.67 | Growth Rate ([1]; 12 h, replicate number 1): 0.1; Growth Rate ([1]; 18 h, replicate number 1): 0.02; Growth Rate ([1]; 24 h, replicate number 1): 0.09; Growth Rate ([2]; 0 h, replicate number 2): 0.08; Growth Rate ([3]; 0 h, replicate number 1): 0.39; Growth Rate ([3]; 0 h, replicate number 2): -0.86
CC(C)C[C@H](NC(=O)c1cc2ccccc2s1)C(=O)N1CCN(C(=O)[C@H](CO)NS(=O)(=O)c2ccc(Cl)cc2Cl)CC1 | -0.15 | -0.86 | 0.01 | -0.18 | 0.68 | 0.65 | 0.27 | 0.93 | 0.95 | – | -0.01 | 0.27 | – | 0 | 0.36 | 0.51 | 0.58 | 0.66 | 0.38 | 0.46 | Growth Rate ([1]; 0 h, replicate number 1): 0.99; Growth Rate ([1]; 12 h, replicate number 1): 0.69; Growth Rate ([1]; 18 h, replicate number 1): 0.71; Growth Rate ([1]; 24 h, replicate number 1): 0.78; Growth Rate ([2]; 12 h, replicate number 1): -0.95; Growth Rate ([3]; 0 h, replicate number 2): -1
CCCCCCCN(CCc1ccc(SC(C)(C)C(=O)O)cc1)C(=O)Nc1ccc(F)cc1F [GSK-9578] | – | 0.55 | 0.91 | 0.7 | – | – | 0 | 0.86 | – | – | 0.66 | 0.73 | 0.88 | 0.88 | – | – | – | – | 0.5 | 0.55 | Growth Rate ([1]; 0 h, replicate number 1): -0.27; Growth Rate ([1]; 0 h, replicate number 2): -0.91; Growth Rate ([2]; 0 h, replicate number 1): 0.58; Growth Rate ([2]; 12 h, replicate number 1): 0.69
COc1ccccc1-c1cc(Nc2cccc(CS(N)(=O)=O)c2)ncn1 | -0.26 | – | – | 0.61 | 0.93 | 0.59 | 0.81 | 0.51 | 0.22 | 0.46 | -0.38 | -0.15 | 0.43 | 0.52 | 0.46 | 0.46 | 0.43 | 0.49 | 0.21 | 0.33 | Growth Rate ([1]; 12 h, replicate number 1): -0.07; Growth Rate ([1]; 18 h, replicate number 1): 0.16; Growth Rate ([1]; 24 h, replicate number 1): 0.38; Growth Rate ([2]; 0 h, replicate number 2): -0.71; Growth Rate ([2]; 12 h, replicate number 1): 0.63
COc1cc(N(C)c2ccnc3ccc(C(F)(F)F)cc23)cc(OC)c1OC | – | 0.41 | 0.94 | – | 0.91 | – | – | 0.9 | – | 1 | -0.32 | 0.01 | -0.52 | – | 0.7 | 0.88 | 0.92 | 0.84 | 0.27 | 0.48 | Growth Rate ([1]; 0 h, replicate number 2): -1; Growth Rate ([2]; 0 h, replicate number 1): 0.97; Growth Rate ([3]; 0 h, replicate number 2): 0.66
Cc1onc(-c2ccc(F)cc2)c1COc1ccc(C(=O)N2CCS(=O)(=O)CC2)cn1 [BASMISANIL] | – | -0.92 | 0.69 | -0.07 | – | – | 0.73 | 0.73 | 0.87 | 0.86 | 0.2 | 0.86 | – | – | 0.62 | 0.8 | 0.98 | 0.82 | 0.92 | 0.94 | Growth Rate ([1]; 24 h, replicate number 1): 0.97; Growth Rate ([2]; 0 h, replicate number 2): -0.96; Growth Rate ([2]; 12 h, replicate number 1): -1

— ChEMBL document CHEMBL5303304, “EUbOPEN Chemogenomics Library - IncuCyte” (2023)
